Results from paper PMC8485325, “Penetrating the Blood-Brain Barrier with New Peptide–Porphyrin Conjugates Having anti-HIV Activity” (Bioconjugate Chemistry, 2021).
Read-outs that look alike come from different tables or passages of the source. Ends that are not written are not given here.

Key:
human erythrocytes = assay: Hemolysis assay; format: cell-based
Description: Plates were incubated for 1 h at 37 °C with 100 rpm stirring, then centrifuged for 5 min at 4000 rpm, 4 °C, and supernatants were transferred to a 96-well flat-bottom polystyrene plate (Corning). Hemolysis was assessed by hemoglobin (Hb) release, measured by absorbance at 415 nm in a Varioskan LUXTM microplate reader (Thermo Fisher Scientific, Inc.). As porphyrin and Hb spectra are partially overlapping, to exclude porphyrin interference in Hb quantification a blank reading of each PPC (no hRBCs, TN buffer +1% DMSO) was subtracted from each measurement. TN buffer (+1% DMSO, no conjugate) and hRBCs with 1% Triton X-100 were used as negative and positive controls, respectively. Hemolysis (%) was determined using the following equation: [drawing 6] 6 where Abstreated is the absorbance of hRBC treated with the conjugates, Absconjugate is the absorbance from each conjugate concentration without hRBCs, AbsTriton is the absorbance of Triton X-100 treated hRBCs, and Absbuffer is the absorbance of TN buffer alone. HC50 values were determined by GraphPad Prism 8 software using a log(inhibitor) vs normalized response (variable slope). Experiments were performed using 3 different blood donors.

bEnd.3 cells = assay: Cell viability assay (CellTiter-Blue); format: cell-based, murine
Description: (§1) bEnd.3 cells were plated in fibronectin precoated 96-well flat-bottom clear black polystyrene plate (Corning, New York, USA) as previously described. Cells were then cultured in complete medium at 37 °C in a 5% CO2 atmosphere, with medium replaced every 2 days. […] Viability was evaluated by the CellTiter-Blue assay (Promega, Wisconsin, USA), based on resazurin reduction into highly fluorescent resorufin by metabolically active cells. By distinguishing metabolic from nonmetabolic cells, cytotoxicity can be indirectly determined. After incubation, cells were washed with PBS, pH 7.4, and 15 μL of CellTiterBlue reagent in 100 μL of complete medium was added to the cells and incubated for 1.5 h at 37 °C in 5% CO2. Fluorescence was measured at 590 nm, with excitation at 560 nm, using an Infinite F200 plate reader (Tecan, Switzerland). Complete medium and medium containing 0.25% Triton X-100 were used as positive and negative controls (100% and 0% viability), respectively. Cell viability (%) was determined using the following equation: [drawing 5] 5 where […] is the fluorescence emission of conjugate-treated cells, Fnontreated is the fluorescence emission of the control nontreated cells, and Fblank is the fluorescent emission of CellTiter reagent in complete medium without cells.

bEnd.3 cell monolayers [1] = assay: In vitro BBB translocation assay (bEnd.3 transwell model)
Excerpt: Assessment of PPC efficacy in BBB translocation was done in a transwell setup (Figure 4A) using bEnd.3 cell monolayers.[44] The bEnd.3 in vitro BBB model consists of a monolayer of cells expressing a range of essential BBB transporters, also bearing the low permeability characteristic of the BBB, suitable for this study.[44]−[46]
(§2) Figure 4 PPCs translocation across a bEnd.3 in vitro BBB model. (A) bEnd.3 in vitro BBB model transwell system. The insert, or apex, corresponds to the blood side, while the base (bottom chamber) corresponds to the brain side. (B) After formation of a monolayer, 10 μM of each conjugate was added to the apical side of the tissue culture inserts. After incubation for 24 h, samples from the basolateral side were collected, and the percentage of translocation of each conjugate (black) was calculated. FD4 permeability (gray) was measured to determine monolayer integrity post-PPCs translocation.
An in vitro BBB model consisting of endothelial cells growing on the apical side of a porous membrane was used.[46] bEnd.3 cells (ATTCC-CRL2299) were cultured as a monolayer on T-flasks in DMEM supplemented with 10% fetal bovine serum (FBS), 1% penicillin/streptomycin. Cells were grown in a humidified atmosphere of 5% CO2 at 37 °C (MCO-18AIC (UV), Sanyo, Japan) with the medium changed every other day. Cells were allowed to grow until confluence in a culture T-flask, and then carefully harvested with trypsin-EDTA and seeded (3500 cells/well) onto fibronectin-coated tissue culture 24-well inserts (transparent polyester membrane with 1.0 μm pores) (BD Falcon, USA). The medium was changed every other day for 10 days, after which cells were washed twice with 1× PBS and once with DMEM medium without phenol red. Next, conjugates diluted in DMEM without phenol red to a final concentration of 10 μM were added to the apical side of the in vitro BBB model (Figure 4A). Experiments were performed on different days using independently grown cell cultures.
The translocation of conjugates was determined by fluorescence intensity (λexc = 380 nm and λem = 625 nm for MP conjugates, and λexc = 380 nm and λem = 675 nm for PP conjugates). P3-CF and P5-CF, peptides labeled with 5(6)-Carboxyfluorescein (CF), were used as positive translocation controls (λexc = 492 nm and λem = 517 nm). After 24 h incubation, samples from the apical and basolateral side were collected and analyzed. Fluorescence was measured using a Varioskan Lux plate reader (Thermo Scientific, MA, USA). The percentage (%) of translocation was calculated using the following equation: [drawing 1] 1 where Fi is the recovered fluorescence intensity, Fcells is the recovered fluorescence intensity from cells without the conjugate, and Fconjugate is the fluorescence intensity of total peptide initially added to the transwell apical side.

[2] = Cell viability assay (CellTiter-Blue); format: cell-based, murine; details: for CC50 at 24 h: mouse
Description: as §1

HIV-1NL4-3 = assay: In vitro inhibition of HIV-1NL4-3 infection of TZM-bl cells (luciferase reporter); format: cell-based
Description: Viral supernatants harvested from pNL4-3-transfected HEK293T cells were titered through the Reed-Muench method[56] based on HIV-1NL4–3 infectivity against TZM-bl cell cultures. TZM-bl cells were seeded at 2 × 10^4 cells/well in tissue culture-treated 96-well microplates from Corning (Corning, NY, USA), and incubated for 24 h. Cells were then incubated with 2-fold serial dilutions of viral supernatants for 3 h, after which the supernatant was replaced with fresh complete medium. After 45 h, TZM-bl cell infection was quantified through luciferase reporter-gene expression levels, under the control of an HIV-1 TAT-dependent LTR promoter[57] using the Luc-Screen luciferase chemiluminescence detection system. Luminescence was measured in an Infinite M200 microplate reader from Tecan (Männedorf, Switzerland). […] Titration was performed with at least four replicates to allow accurate estimation of TCID50 in viral supernatants.
The inhibitory activity of conjugates on HIV-1NL4–3 entry into TZM-bl cells was evaluated as previously described.[58] TZM-bl cells were seeded at 2 × 10^4 cells/well in tissue culture-treated 96-well microplates and incubated for 24 h. HIV-1NL4–3 viral supernatants (100 or 10 TCID50/well) were then incubated for 1 h with 2-fold serial dilutions of either nonconjugated peptide and porphyrins or conjugates, after which the infection mixture was added to TZM-bl cells. Untreated cells (in the absence of peptide–porphyrin conjugate) were used as control. Virions were incubated with cells for 3 h, after which cells were washed to remove unbound virions and new medium was added. After 45 h, infection was quantified by the Luc-Screen chemiluminescence assay. Measurements were performed in an Infinite M200 microplate reader. […] At least three independent experiments were performed for each assay.

bEnd.3 cell monolayers [3] = tested on: bEnd.3 cell monolayers
Description: as §2
After 24 h incubation with conjugates, an in vitro integrity assay was performed.[19] Briefly, cells were washed twice with PBS and once with DMEM medium without phenol red. Then, previously diluted 4 kDa fluorescein isothiocyanate-dextran (FD4) (Sigma-Aldrich, Spain) in DMEM without phenol red to an absorbance of 0.1 was added to the apical side and incubated for 2 h. Samples were collected from the apical and basolateral side, and fluorescence intensity was measured with λext = 493 nm and λem = 520 nm, using a Varioskan Lux plate reader. The integrity of the barrier was determined as follows: [drawing 2] 2 where Fi is the recovered fluorescence intensity, Fcells is the recovered fluorescence intensity from cells without FD4 incubation, FFD4 is the fluorescence intensity of total FD4 initially added to the transwell apical side, and FMedium is the fluorescence intensity of DMEM medium without phenol red.

TZM-bl cells = format: cell-based
Description: TZM-bl Cell Viability Studies
The cytotoxic effects of each PPC on TZM-bl cell cultures were assessed to ensure that HIV inhibition was a result of the compounds effect on the virus and not on the host cells used in the assay. A resazurin reduction fluorometric assay was performed. Resazurin, the active compound in alamarBlue®, is a blue dye that can be reduced to a pink fluorescent intermediate, resorufin, as a result of cell metabolic activity.6 TZM-bl cells were seeded at 2x10^4 cells/well in tissue culture-treated 96-well microplates and incubated for 24 h. Cells were then incubated with serial dilutions (2-fold) of single peptide and porphyrins, or PPC, for 3 h, after which the mixture was replaced with fresh complete medium. Untreated cells (in the absence of peptide-porphyrin combinations) were used as a control. After 42 h, media was replaced with alamarBlue® reagent and incubated for an additional 3 h. Resazurin reduction was quantified by resorufin fluorescent emission intensity, measured in an Infinite M200 microplate reader. Fluorescence emission intensity was collected at 590 nm, using a fixed λ exc of 560 nm. Excitation and emission slits were 9 and 20 nm, respectively. Cell viability was calculated through the following formalism: […]
where I EI corresponds to the resorufin fluorescence emission intensity in the presence of EIs or combination, I control to the fluorescence emission intensity in the absence of EIs and I background to the background fluorescence emission from the non-reduced […]
P5, P4-MP, MP-L-P3 and P4-L-M - are presented here.
TZM-bl cell viability on the concentration range tested.
(1 picture or pasted object on this page, not shown here)
Figure S7. PPCs cytotoxic effects against TZM-bl cells. A resazurin reduction fluorometric assay, dependent on the cell metabolic activity, was used. Cell viability, normalized to the control in the absence of PPC, was measured against three concentrations of each individual PPC: MP-P3 (black), MP-P5 (white), P4-MP (red), MP-L-P3 (blue) and P4-L-MP (green).

In the case of “P6-MP: mesoporphyrin IX coupled to the C-terminal Lys side chain of peptide P6 (SGTQEEYK-amide) (SGTQEEYK(mesoporphyrin IX)-NH2)”, the “HC50: 50% lytic concentration for human erythrocytes” value (from here on “HC50: 50% lytic concentration”) (human erythrocytes; 1 h at 37 °C, 0.1–50 μM range) is reported as over 50 µM and the CC50 (bEnd.3 cells; read-out: CC50: 50% cytotoxic concentration toward bEnd.3 cells, 24 h, 6.25–50 μM range) is reported as over 50 µM.
In the case of `C=CC1=C(C)c2cc3[nH]c(cc4nc(cc5[nH]c(cc1n2)c(C)c5CCC(=O)O)C(CCC(=O)O)=C4C)c(C)c3C=C` [PP, protoporphyrin IX, reference compound], the “BBB translocation (in words)” value (bEnd.3 cell monolayers [1]) is reported as “translocated the monolayer”, the “% Base (RFI), Translocation” value (bEnd.3 cell monolayers [1]; mouse, 24 h, 10 μM) is reported as 38.3% and the “HC50: 50% lytic concentration” value (human erythrocytes; human, 1 h, pH 7.4) is reported as over 50 µM. For the same compound, the CC50 at 24 h [2] was over 50 µM, the IC50 (HIV-1NL4-3; Human immunodeficiency virus 1, TZM-bl, read-out: IC50 HIV inhibition, 100 TCDI50) was over 50 µM and the “% Base (RFI), FD4 Permeability (monolayer integrity post-translocation)” value (“% Base (RFI), FD4 Permeability” below) (bEnd.3 cell monolayers [3]; mouse, 2 h, 10 μM) was 8.7%.
In the case of `O=C(O)CN(CCOCCOCCN(CC(=O)O)CC(=O)O)CC(=O)O` [EGTA, reference compound], the “% Base (RFI), FD4 Permeability” value (bEnd.3 cell monolayers [3]) is reported as 26.8%.
For “PP-P3: protoporphyrin IX coupled to the N-terminal NH2 group of peptide P3 (AGILKRW-amide) ({protoporphyrin IX}-AGILKRW-NH2)”, the CC50 (bEnd.3 cells) was over 50 µM and the “% Base (RFI), FD4 Permeability” value (bEnd.3 cell monolayers [3]) was 7.2%.
With “H-VQQLTKRFSL-NH2 [P1, reference compound]” the “HC50: 50% lytic concentration” value (human erythrocytes; 1 h at 37 °C, 0.1–50 μM range) was over 50 µM and the CC50 ([2]; 24 h, 6.25–50 μM range) was over 50 µM.
For “MP-P3: mesoporphyrin IX coupled to the N-terminal amino group of peptide P3 (AGILKRW-amide) ({mesoporphyrin IX}-AGILKRW-NH2)”, the CC50 (bEnd.3 cells) was 48.2 µM, the IC50 (HIV-1NL4-3; 10 TCDI50 per well (approximate physiological conditions of HIV brain infection), TZM-bl cells, read-out: IC50 HIV inhibition, 10 TCDI50) was 1.38 ± 1.1 µM and the IC50 (HIV-1NL4-3; 100 TCDI50 per well, TZM-bl cells, no-light, read-out: IC50 HIV inhibition, 100 TCDI50) was 16.1 ± 1.3 µM. For the same compound, the “% Base (RFI), FD4 Permeability” value (bEnd.3 cell monolayers [3]) was 10.2% and the “TZM-bl cell viability (in words)” value (TZM-bl cells) was “did not alter significantly”.
With “H-AGILKRW-NH2 [P3, AGILKRW-amide, reference compound]” the “HC50: 50% lytic concentration” value (human erythrocytes; 1 h at 37 °C, 0.1–50 μM range) was over 50 µM and the CC50 ([2]; 24 h, 6.25–50 μM range) was over 50 µM.
In the case of `CCC1=C(C)c2cc3[nH]c(cc4nc(cc5[nH]c(cc1n2)c(C)c5CCC(=O)O)C(CCC(=O)O)=C4C)c(C)c3CC` [MP, mesoporphyrin IX, reference compound], the “BBB translocation (in words)” value (bEnd.3 cell monolayers [1]; bEnd.3 monolayer in vitro model) is reported as “translocated the monolayer”, the “HC50: 50% lytic concentration” value (human erythrocytes; 1 h at 37 °C, 0.1–50 μM range) is reported as over 50 µM and the CC50 at 24 h ([2]; bEnd.3 cells, 24 h, 6.25–50 μM range) is reported as over 50 µM. The IC50 (HIV-1NL4-3; Human immunodeficiency virus 1, 100 TCDI50 per well, TZM-bl cells, no-light, read-out: IC50 HIV inhibition, 100 TCDI50) was over 50 µM.
For “P4-PP: protoporphyrin IX coupled to the Lys side-chain NH2 group of peptide P4 (AGILKRWK-amide) (AGILKRWK-NH2; also: protoporphyrin IX on a Lys side chain, Lys not given here)”, the CC50 (bEnd.3 cells) was over 50 µM and the “% Base (RFI), FD4 Permeability” value (bEnd.3 cell monolayers [3]) was 9.9%.
With “H-SGTQEEY-NH2 [P5, SGTQEEY-amide, reference compound]” the “HC50: 50% lytic concentration” value (human erythrocytes; red cells of human, 1 h) was over 50 µM and the CC50 [2] was over 50 µM.
